Literature values as cited in patent publication US7163699B2, “Progestin co-micronized with a surfactant pharmaceutical composition comprising same methods for making same and uses thereof” (Laboratories Besins International, priority 2001, dated 2007).

Conditions: co-micronization with sodium lauryl sulfate or a sucrose ester of stearic acid

Question: With `O=C1NC(=O)C(c2ccccc2)(c2ccccc2)N1` [phenitoin] as the molecule, how does the solubility of phenitoin read?
Answer: The solubility of phenitoin was “not improved”.
